Results taken from ChEMBL document CHEMBL1201862, “PubChem BioAssay data set” (2004).
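Briefly, cells in 96-well plates were exposed to five compound concentrations for 48 h, and endpoints were estimated by linear interpolation. The concentration for 50% growth inhibition is given as GI50.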 Activity calls are given as the source filed them. No stated cut-off is given here; in the data, active = GI50 up to about 1.1 µM and inactive = higher.

Legend:
Assay in all cases: NCI tumour cell line growth inhibition, 48 h
M14 = test system: M14
LXFL 529 = test system: LXFL 529
SF-295 = test system: SF-295
EKVX = test system: EKVX
U-251 = test system: U-251
HOP-62 = test system: HOP-62
SW-620 = test system: SW-620
786-0 = test system: 786-0
SN12C = test system: SN12C
OVCAR-8 = test system: OVCAR-8
UACC-257 = test system: UACC-257
SF-268 = test system: SF-268
SNB-19 = test system: SNB-19
A549 = test system: A549
OVCAR-4 = test system: OVCAR-4
KM12 = test system: KM12
HOP-92 = test system: HOP-92
A498 = test system: A498
OVCAR-5 = test system: OVCAR-5

Row | SMILES | GI50 (M14) | GI50 (LXFL 529) | GI50 (SF-295) | GI50 (EKVX) | GI50 (U-251) | GI50 (HOP-62) | GI50 (SW-620) | GI50 (786-0) | GI50 (SN12C) | GI50 (OVCAR-8) | GI50 (UACC-257) | GI50 (SF-268) | GI50 (SNB-19) | GI50 (A549) | GI50 (OVCAR-4) | GI50 (KM12) | GI50 (HOP-92) | GI50 (A498) | GI50 (OVCAR-5)
1 | O=C1CC2C(=O)N(Cc3ccccc3)C1C=C2S(=O)(=O)c1ccccc1 (stereo not drawn) | > 100 µM (inactive) | > 100 µM (inactive) | > 100 µM (inactive) | > 100 µM (inactive) | > 100 µM (inactive) | > 100 µM (inactive) | > 100 µM (inactive) | > 100 µM (inactive) | > 100 µM (inactive) | > 100 µM (inactive) | > 100 µM (inactive) | > 100 µM (inactive) | > 100 µM (inactive) | > 100 µM (inactive) | > 100 µM (inactive) | > 100 µM (inactive) | > 100 µM (inactive) | > 100 µM (inactive) | 
2 | COc1cc2cc(c1Cl)N(C)C(=O)C[C@H](OC(=O)[C@H](C)N(C)C(C)=O)[C@]1(C)O[C@H]1[C@H](C)[C@@H]1C[C@@](O)(NC(=O)O1)[C@H](OC)/C=C/C=C(/C)C2 | 0.0509 µM (active) | 0.01 µM (active) | 0.0174 µM (active) | 0.355 µM (active) | 0.015 µM (active) | 0.0199 µM (active) | 0.0165 µM (active) | 0.025 µM (active) | 0.0203 µM (active) | 0.0218 µM (active) | 0.0373 µM (active) | 0.0176 µM (active) | 0.0149 µM (active) | 0.0255 µM (active) | 0.794 µM (active) | 0.0149 µM (active) | 0.0118 µM (active) | 0.0161 µM (active) | 6.98 µM (inactive)
3 | CC(C)N(C(=O)C12C3C4C1C1C2C3C41C#N)C(C)C (stereo not drawn) | > 100 µM (inactive) | > 100 µM (inactive) | > 100 µM (inactive) | > 100 µM (inactive) | > 100 µM (inactive) | > 100 µM (inactive) | > 54.5 µM (inactive) | > 100 µM (inactive) | > 100 µM (inactive) | > 100 µM (inactive) | > 100 µM (inactive) | > 100 µM (inactive) | > 100 µM (inactive) | > 100 µM (inactive) | > 100 µM (inactive) | > 100 µM (inactive) | > 100 µM (inactive) | > 100 µM (inactive) | > 100 µM (inactive)
4 | COC1CC(OS(=O)(=O)c2ccc(C)cc2)C(OC(=O)c2ccccc2)C(C)O1 (stereo not drawn) | > 10 µM (inactive) | > 10 µM (inactive) | > 100 µM (inactive) | > 10 µM (inactive) | > 10 µM (inactive) | > 10 µM (inactive) | > 10 µM (inactive) | > 10 µM (inactive) | > 10 µM (inactive) | > 10 µM (inactive) | > 10 µM (inactive) | > 100 µM (inactive) | > 10 µM (inactive) | > 10 µM (inactive) | > 10 µM (inactive) | > 10 µM (inactive) | 99.1 µM (inactive) | > 10 µM (inactive) | > 10 µM (inactive)
5 | O=C(NCCS(=O)(=O)N1C(=O)C2CCCN2C(=O)[C@@H]1Cc1ccccc1)OCc1ccccc1 (stereo partly drawn) | 36 µM (inactive) | 34 µM (inactive) | 50 µM (inactive) | 40.9 µM (inactive) | 55.3 µM (inactive) | 99.8 µM (inactive) | 90.4 µM (inactive) | 78.9 µM (inactive) | 52.8 µM (inactive) | 69.8 µM (inactive) | 48.2 µM (inactive) | 45.6 µM (inactive) | 44.4 µM (inactive) | 41.1 µM (inactive) | 36.7 µM (inactive) | 44.2 µM (inactive) | 27.7 µM (inactive) | 25.3 µM (inactive) | 70.3 µM (inactive)
6 | CCc1cccc(CC)c1NC(=O)CC1SC(N)=NC1=O (stereo not drawn) | > 100 µM (inactive) | > 100 µM (inactive) | > 100 µM (inactive) | > 100 µM (inactive) | > 100 µM (inactive) | > 100 µM (inactive) | > 100 µM (inactive) | > 100 µM (inactive) | > 100 µM (inactive) | > 100 µM (inactive) | > 100 µM (inactive) | > 100 µM (inactive) | > 100 µM (inactive) | > 100 µM (inactive) | > 100 µM (inactive) | > 100 µM (inactive) | > 100 µM (inactive) | > 100 µM (inactive) | > 100 µM (inactive)
7 | NNC(=S)N/N=C(/C(=O)Nc1cc(Cl)ccc1Cl)C1C(=O)Nc2ccccc2[S+]1[O-] (stereo not drawn) | > 100 µM (inactive) | > 100 µM (inactive) | > 100 µM (inactive) | 55.1 µM (inactive) | > 100 µM (inactive) | > 100 µM (inactive) | > 100 µM (inactive) | > 100 µM (inactive) | > 100 µM (inactive) | > 100 µM (inactive) | > 100 µM (inactive) | > 100 µM (inactive) | > 100 µM (inactive) | 73.3 µM (inactive) | > 100 µM (inactive) | > 100 µM (inactive) | > 100 µM (inactive) | > 100 µM (inactive) | > 100 µM (inactive)
8 | CCCCCCCCCCCC(=O)OCCOCCOCCOCCOCCOC(=O)CCCCCCCCCCC | > 100 µM (inactive) | > 100 µM (inactive) | > 100 µM (inactive) | > 100 µM (inactive) | > 100 µM (inactive) | > 100 µM (inactive) | > 100 µM (inactive) | > 100 µM (inactive) | > 100 µM (inactive) | > 100 µM (inactive) | > 100 µM (inactive) | > 100 µM (inactive) | > 100 µM (inactive) | > 100 µM (inactive) | > 100 µM (inactive) | > 100 µM (inactive) | > 100 µM (inactive) | > 100 µM (inactive) | > 100 µM (inactive)
9 | Cc1cccc(C)c1NC(=O)CCCC(=O)C1/C(=N/NC(=O)CC#N)CCC/C1=N\NC(=O)CC#N (stereo not drawn) | > 100 µM (inactive) | > 100 µM (inactive) | > 100 µM (inactive) | > 100 µM (inactive) | > 100 µM (inactive) | > 100 µM (inactive) | > 100 µM (inactive) | > 100 µM (inactive) | > 100 µM (inactive) | > 100 µM (inactive) | > 100 µM (inactive) | > 100 µM (inactive) | > 100 µM (inactive) | > 100 µM (inactive) | > 100 µM (inactive) | > 100 µM (inactive) | 48.8 µM (inactive) | > 100 µM (inactive) | > 100 µM (inactive)
10 | COC(=O)C(C(=O)C(=O)Nc1c(Cl)cc([N+](=O)[O-])cc1Cl)c1nc2cc(C)c(C)cc2nc1O (stereo not drawn) | > 100 µM (inactive) | > 100 µM (inactive) | > 100 µM (inactive) | 38.9 µM (inactive) | > 100 µM (inactive) | > 100 µM (inactive) | > 100 µM (inactive) | > 100 µM (inactive) | > 100 µM (inactive) | > 100 µM (inactive) | > 100 µM (inactive) | > 100 µM (inactive) | > 100 µM (inactive) | > 100 µM (inactive) | > 100 µM (inactive) | > 100 µM (inactive) | 47.8 µM (inactive) | 44.9 µM (inactive) | > 100 µM (inactive)
11 | COc1ccc(C2=C3c4cc(OC)c(OC)cc4CCN3C(=S)SS2)cc1OC | 98.2 µM (inactive) | 52.5 µM (inactive) | > 100 µM (inactive) | > 100 µM (inactive) | 61.1 µM (inactive) | > 100 µM (inactive) | 95.9 µM (inactive) | > 100 µM (inactive) | 64.7 µM (inactive) | > 100 µM (inactive) | 72.4 µM (inactive) | 72.1 µM (inactive) | 69 µM (inactive) | > 100 µM (inactive) | 48.4 µM (inactive) | 66.7 µM (inactive) | 32.1 µM (inactive) | 46.6 µM (inactive) | > 100 µM (inactive)
12 | C=CC(=O)NC(=N)NC#N | 151 µM (inactive) | 124 µM (inactive) | 313 µM (inactive) | > 100 µM (inactive) | 158 µM (inactive) | 210 µM (inactive) | > 76.2 µM (inactive) | 163 µM (inactive) | 157 µM (inactive) | 214 µM (inactive) | 125 µM (inactive) | 121 µM (inactive) | 363 µM (inactive) | 195 µM (inactive) | 168 µM (inactive) | > 100 µM (inactive) | > 39.4 µM (inactive) | 152 µM (inactive) | 177 µM (inactive)
13 | O=C(Nc1cc(C(F)(F)F)ccc1Cl)C(=O)C(C(=O)c1ccc2ccccc2c1)C1OC(=O)c2ccccc21 (stereo not drawn) | 12.2 µM (inactive) | 5.11 µM (inactive) | 4.81 µM (inactive) | 13.5 µM (inactive) | 2 µM (inactive) | 6.01 µM (inactive) | 6.35 µM (inactive) | 5.26 µM (inactive) | 13 µM (inactive) | 5.09 µM (inactive) | 10 µM (inactive) | 4.13 µM (inactive) | 6.21 µM (inactive) | 9.57 µM (inactive) | 18 µM (inactive) | 13.3 µM (inactive) | 11.8 µM (inactive) | 6.55 µM (inactive) | 8.95 µM (inactive)
14 | Cc1cc2c3ccccc3n(C)c2c2c1C(=O)c1ccccc1C2=O | 19.1 µM (inactive) | 16.9 µM (inactive) | 13.6 µM (inactive) | 24.3 µM (inactive) |  | 20.4 µM (inactive) | 25 µM (inactive) | 16.5 µM (inactive) | 19.2 µM (inactive) | 19.2 µM (inactive) | 20 µM (inactive) | 25 µM (inactive) | 33.5 µM (inactive) | 21.3 µM (inactive) | 17.8 µM (inactive) | 28.2 µM (inactive) | 13.5 µM (inactive) | 25.6 µM (inactive) | 
